One assay concerns the target T1, human α5β1 integrin (Homo sapiens, UniProt P05556+P08648).
T1 construct: purchased R&D Systems (Biotechne brand) 3230-A5
In words: Fibronectin-α5β1 competitive solid-phase ELISA binding assay. Particulars: immobilized fibronectin, soluble integrin. As for the experimental part:
(§1) The affinity and selectivity of the integrin peptide ligands were ascertained according to a modified method previously reported by some of us.[33],[47] The binding was determined in a competitive solid-phase binding assay using extracellular matrix proteins, soluble integrins, and pertinent integrin-specific antibodies in an enzyme-linked immunosorbent assay (ELISA).
The experimental procedure was as described for the αvβ6 assay, except for the following modifications. […] Visualization and analysis were performed as described above.

The target of another assay is T2, human αvβ6 integrin (Homo sapiens, UniProt P06756+P18564).
T2 construct: using immobilized ECM protein and soluble integrin; purchased R&D Systems (Biotechne brand) 3817-AV
Briefly: LAP(TGF-β1)-αvβ6 competitive solid-phase ELISA binding assay. Particulars: immobilized LAP, soluble integrin. As for the experimental part:
as §1
A flat-bottom 96-well ELISA plate was coated overnight at 4 °C with 100 μL/well of 0.4 μg/mL LAP previously diluted in carbonate buffer (15 mM Na2CO3, 35 mM NaHCO3, pH 9.6). Afterward, each well was then washed three times with 200 μL of PBS-T buffer (137 mM NaCl, 2.7 mM KCl, 10 mM Na2HPO4, 2 mM KH2PO4, 0.01% Tween 20, pH 7.4) and blocked for 1 h at room temperature with 150 μL/well TSB buffer (20 mM Tris–HCl, 150 mM NaCl, 1 mM CaCl2, 1 mM MgCl2, 1 mM MnCl2, pH 7.5, 1% BSA). Then, each well was washed three times with 200 μL of PBS-T.
Equal volumes (50 μL) of the internal standard (or test compounds) were mixed with 0.5 μg/mL human integrin αvβ6 (50 μL) giving a final dilution series in TSB buffer of 0.00064–10 μM for the inhibitors and 0.25 μg/mL for integrin αvβ6. These solutions (100 μL/well) were added to the flat-bottom ELISA plate and incubated for 1 h at room temperature. The solutions were discarded from the wells, and the plate was washed three times with PBS-T buffer (3 × 200 μL). […] The solutions were discarded from the wells, and the plate was washed three times with PBS-T (3 × 200 μL). The binding assay was developed by adding 50 μL/well of the 3,3′,5,5′-tetramethylbenzidine (TMB) liquid substrate system and incubating for 1 min at room temperature. The reaction was stopped by adding 50 μL/well of 3 M H2SO4. The peroxidase product formation was detected by measuring the absorbance at […] using a plate reader (Tecan SpectraFLUOR plus, Männedorf, Switzerland). Each compound concentration was tested in duplicate, and the resulting inhibition curves were analyzed using OriginPro 7.5G software; the inflection point describes the IC50 value. Each plate contained a linear peptide ([…]) as the internal standard.[63]
A general note: An ELISA detects its analyte on a solid surface through an enzyme-linked reagent.

In another assay the test system is T3, integrin β8.
T3 construct: expressed in transfected cells; host or cells: J cells (derivatives of BHK-TK2 hamster cells)
Briefly: Integrin internalization assay, surface integrin β8 by flow cytometry. The class given is cell-based, human. Particulars: J cells with nectin1, αvβ6 and αvβ8, 700 μM, 1 h at 37 °C. The text has this: Therefore, another mechanism might be responsible for the activity of 6 on J cells expressing αvβ8 integrin alone as well as the higher activity of 6 than that of 1 in cells that express both αvβ6 and αvβ8.[38] Thus, we hypothesized that 6 can prevent HSV-1 entry into J cells expressing nectin1 and the αvβ8 integrin alone by inducing internalization of the integrin itself. To validate our hypothesis, J cells were transfected with nectin1 and the two integrins αvβ6 and αvβ8 in the above-described manner. Then, 48 h after transfection, the cells were incubated for 60 min at 37 °C with 1 or 6. The surface expression of integrin β6 and β8, in the presence or the absence of peptides, was then evaluated by flow cytometry using FAB4155A (mAbβ6) and FAB4775A (mAbβ8) monoclonal antibodies that recognize other integrin regions than the RGD-binding domain.
Figure 5 Integrin internalization assay. J cells were transfected with a low amount (75 ng of DNA/24 well) of nectin1 plus αvβ6 integrin (300 ng of DNA/24 well) and αvβ8 integrin (300 ng of DNA/24 well). Then, 48 h after transfection, the cells were exposed to 700 μM peptides for 1 h at 37 °C. […] Integrin and nectin1 surface expression levels were quantified as flow cytometry expression of the APC mean fluorescence intensity (MFI) of gated cells. […]
For orientation: Flow cytometry measures light scatter and fluorescence of single cells or particles in a stream.

Another assay deals with T4, human αvβ3-integrin (Homo sapiens, UniProt P05106+P06756).
T4 construct: purchased R&D Systems (Biotechne brand) 3050-AV
Briefly: Vitronectin-αvβ3 competitive solid-phase ELISA binding assay. As for the experimental part: as §1
The experimental procedure was as described for the αvβ6 assay, except for the following modifications. The plates were coated with 100 μL/well of 1.0 μg/mL vitronectin in carbonate buffer, washed, and blocked as described above. […] As a primary antibody, 100 μL/well of 2.0 μg/mL primary antibody (mouse antihuman CD51/61) was used. The secondary antibody used was the same as that used for the integrin αvβ6 assay. Visualization and analysis were performed as described above.

For `CN1C(=O)[C@H](C2CCCCC2)NC(=O)[C@H](CC(=O)O)NC(=O)CNC(=O)[C@H](CCCNC(=N)N)NC(=O)CC[C@H]1C(N)=O` [compound 6, [Arg-Gly-Asp-Chg-(NMe)Glu]-CONH2], the IC50 (in general, the point on the concentration scale where inhibition reaches its midpoint) on human α5β1 integrin worked out at 112 ± 26 nM; on human αvβ6 integrin, 1.6 ± 0.1 nM; at human αvβ3-integrin (competitive ELISA, immobilized vitronectin, soluble integrin) it was 1200 ± 121 nM. For the same compound, the “integrin β8 surface level (in words)” value with integrin β8 is listed as “reduced”. Besides, the “binding affinity for αvβ3 (in words)” value at human αvβ3-integrin is “no significant binding affinity”.

Values taken from paper PMC8279406 (Journal of Medicinal Chemistry, 2021).
